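Protocol summary: plate cells (96-well), add compound at 5 concentrations, incubate 48 h, interpolate endpoints linearly. The concentration for full growth arrest is given as TGI.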
How the values were obtained:
Experiment in all cases: NCI-60 cell line screen, 48 h
ACHN renal = tested on: ACHN renal
CCRF-CEM leukemia = tested on: CCRF-CEM leukemia
COLO 205 colon = tested on: COLO 205 colon
DU-145 prostate = tested on: DU-145 prostate
HS 578T breast = tested on: HS 578T breast
LOX IMVI melanoma = tested on: LOX IMVI melanoma
M14 melanoma = tested on: M14 melanoma
MALME-3M melanoma = tested on: MALME-3M melanoma
MOLT-4 leukemia = tested on: MOLT-4 leukemia
NCI-H226 lung = tested on: NCI-H226 lung
OVCAR-3 ovarian = tested on: OVCAR-3 ovarian
OVCAR-4 ovarian = tested on: OVCAR-4 ovarian
PC-3 prostate = tested on: PC-3 prostate
SN12C renal = tested on: SN12C renal
SNB-75 CNS = tested on: SNB-75 CNS
T-47D breast = tested on: T-47D breast
U251 CNS = tested on: U251 CNS
UACC-257 melanoma = tested on: UACC-257 melanoma
UO-31 renal = tested on: UO-31 renal

Structure (SMILES)	TGI (ACHN renal) [µM]	TGI (CCRF-CEM leukemia) [µM]	TGI (COLO 205 colon) [µM]	TGI (DU-145 prostate) [µM]	TGI (HS 578T breast) [µM]	TGI (LOX IMVI melanoma) [µM]	TGI (M14 melanoma) [µM]	TGI (MALME-3M melanoma) [µM]	TGI (MOLT-4 leukemia) [µM]	TGI (NCI-H226 lung) [µM]	TGI (OVCAR-3 ovarian) [µM]	TGI (OVCAR-4 ovarian) [µM]	TGI (PC-3 prostate) [µM]	TGI (SN12C renal) [µM]	TGI (SNB-75 CNS) [µM]	TGI (T-47D breast) [µM]	TGI (U251 CNS) [µM]	TGI (UACC-257 melanoma) [µM]	TGI (UO-31 renal) [µM]
Cc1c(C)c2c(c(N)c1C#N)C(=O)N(CCc1ccccc1)C2=O	> 100	> 100	> 100	> 100	> 100	> 100	> 100	> 100	> 100	> 100	> 100	> 100	> 100	> 100	> 100	> 100	> 100	> 100	> 100
Cc1ccc2c(c1)C(=O)/C(=N/Nc1ccc(Cl)cc1)CCO2	> 100	> 100	> 100	> 100	> 100	> 100	> 100	> 100	> 100	> 100	> 100	> 100	> 100	> 100	> 100	> 100	> 100	> 100	> 100
COc1cc(OCc2ccc3nc(-c4ccccc4)c(Cl)nc3c2)cc(OC)c1OC	> 100	> 100	> 100	> 100	> 100	> 100	> 100	96.1	> 100		> 100	> 100	> 100	> 100	> 100	> 100	52.3	> 100	> 100
Cc1oc2c(c1C)S(=O)(=O)C(C#N)=C(c1ccccc1)N2	> 100		> 100	> 100	> 100	> 100	> 100	> 100	> 100	> 100	> 100	> 100	> 100	> 100	> 100	> 100	> 100	> 100	> 100
COc1ccc2cc(Oc3ccc(Cl)cc3)c(=O)oc2c1	> 100	> 100		> 100	> 100	> 100	> 100	> 100	> 100	> 100	> 100	> 100	> 100	> 100	> 100	> 100		> 100	> 100
CNc1c2cccc(C)c2nc2c(C(=O)NCCN(C)C)cccc12	0.723		0.278	0.684	0.497	0.391	0.887	0.692	0.306	0.847	1.05	0.114	0.88	0.719	0.592	0.675	0.651	1.24	2.49
CC(=O)O[C@@H]1CC[C@@]2(C)C(CC[C@H]3[C@@H]4CC[C@H]([C@H](C)CCc5nc6ccc(C)cc6[nH]5)[C@@]4(C)CC[C@@H]32)C1 (some centres not stated)	> 100	8.47	> 100	> 100	> 100	> 100	> 100		> 100	48.1	> 100	> 100	> 100	> 100	24.1	4.63	> 100	> 100	> 100
OC1(CCc2ccccc2)COC(C(F)(F)F)(C(F)(F)F)C1 (configuration not stated)	> 100	> 100	> 100	> 100	> 100	> 100	> 100	> 100	> 100	> 100	> 100	> 100	> 100	> 100	> 100	> 100	> 100		> 100
CC1=NN(C(=O)CC(=O)Nc2ccc(C)cc2)C(=O)C1N=Nc1ccc(C(=O)O)cc1 (configuration not stated)	> 100	> 100	> 100	> 100	> 100	> 100	> 100	> 100			> 100	> 100	> 100	> 100	> 100	> 100	> 100	> 100	> 100
CCC(C)C(C(=O)N/N=C1/SCC(=O)N1c1ccccc1)C(=O)N/N=C1/SCC(=O)N1c1ccccc1 (configuration not stated)	> 100	> 100	> 100	> 100	> 100	> 100	> 100	44.7	> 100		> 100	33.3	> 100	> 100	> 100	> 100	> 100	> 100	> 100
CO[C@H]1c2cccc3cccc(c23)[C@@H]1n1[nH]c(=O)n(C(C)(C)C)c1=O		> 100	> 100	> 100	> 100	> 100	> 100	> 100	> 100	> 100	> 100	> 100	> 100	> 100	> 100	> 100	> 100	> 100	> 100
N=c1oc2ccc([N+](=O)[O-])cc2cc1C(=O)NCc1ccccc1	31.1	> 100	40.5	> 100	42.9	32.2	61.3	26.7	> 100	26.9		63.5	40.3	36.9	29.5	67.3	83	38.2	35.8
CC(C)(C)[Si](C)(C)O[C@@H](C(=O)OC1C=CCCC1)[C@@H](NC(=O)c1ccccc1)c1ccccc1 (some centres not stated)	62.9	32.5	76.8	> 100	> 100	41.2		> 100	39.3	> 100	> 100	> 100	> 100	61.3	> 100	98	> 100	> 100	> 100
COc1cccc(OC/C(N=Cc2cccnc2)=N/NC(=O)c2ccncc2)c1	> 100	> 100	> 100	> 100	> 100	> 100	> 100	> 100	> 100	> 100	> 100	> 100	> 100		> 100	> 100	> 100	> 100	
N#C/C(=C\c1cn(Cc2ccccc2)c2ccccc12)c1nn(-c2ccccc2)c(N)c1C#N	75.6	47.8	56.2	32.2	> 100	> 100	46.1	47.4	> 100		33.7	13.7	19.8	38.7	15.3	23.3	26.5	50	26.5
COC(=O)c1cc2c(o1)Sc1ccccc1NC2=O	> 100	> 100	> 100	> 100	63.8	> 100	> 100		> 100	> 100	> 100	> 100	> 100	> 100	66.6	> 100	> 100	> 100	
O=C1CC(NC(=O)C(F)(F)F)c2c1csc2Br (configuration not stated)	> 100	> 100	> 100	> 100	> 100	> 100	> 100	> 100	> 100	> 100	> 100	> 100	> 100	> 100		> 100	> 100	> 100	> 100
COc1cc(S(=O)(=O)Nc2nc(-c3ccc(N4C(=O)C(CC(=O)O)SC4c4ccccc4O)cc3)cs2)ccc1Cl (configuration not stated)	> 100		> 100	> 100	> 100	> 100	> 100	> 100	> 100	> 100	> 100	> 100	> 100	> 100	> 100	> 100	> 100	> 100	> 100
COc1nc(C)nc2sc3c(c12)CCCC3	> 100		> 100	> 100	> 100	> 100		> 100	> 100	> 100	> 100	> 100	> 100	> 100	> 100	> 100	> 100	> 100	> 100
O=[n+]1c2ccccc2n([O-])c2ccccc21	> 100	> 100	> 100	> 100	> 100	> 100	> 100	> 100	81.2	> 100		> 100	> 100	> 100	> 100	> 100	> 100	> 100	> 100
